From US20250368595A1, “NOVEL MOLECULES” (XENIOPRO GmbH, priority 2018, published 2025)

Legend:
HL-60 cells = test: alamarBlue proliferation assay with HL-60 cells; format: cell-based, human; settings: relative to DMSO basis level 1.0
Description: (§1) The antiproliferative activities of compounds falling under formula (Ia), (Ib) and (Ic), respectively, were investigated on cells or cell lines originating from a disorder of the haematopoietic system, including the myeloid cell compartment and the lymphoid cell compartment (T-cells and B-cells), the neuroendocrine system, the cervix, the breast, the ovaries, the lung, the gastrointestinal tract, and the mucosal epithelium, as well as from the skin epithelium and from the muscle. To this end, HL-60 cells, NB-4 cells, HH cells, RPMI-8402 cells, TANQUE cells, TT cells, HeLa cells, MDA-MB-231 cells, FU-OV-1 cells, LOU-NH91 cells, 23132/87 cells, CAL-27 cells, BHY cells, SCC-25 cells, A-431 cells, human primary epidermal keratinocytes (HPEK), and C2C12 cells were seeded into 96-well plates suitable for fluorescence assays (CORNING #3598) at following initial cell numbers: 1000 cells per well for HL-60; 1000 cells per well for NB-4; 5000 cells per well for HH; 5000 cells per well for RPMI-8402; 1500 cells per well for TANOUE; 9000 cells per well for TT; 2000 cells per well for HeLa; 3000 cells per well for MDA-MB-231; 3000 cells per well for FU-OV-1; 4000 cells per well for LOU-NH91; 2000 cells per well for 23132/87; 2000 cells per well for CAL-27; 1500 cells per well for BHY; 1500 cells per well for SCC-25; 700 cells per well for A-431; 1000 cells per well for HPEK; 500 cells per well for C2C12. […] The readout was taken with a multi-well plate-reader in the fluorescence mode with applying a filter for excitation at 560 nm (band width 10 nm) and for emission at 590 nm (band width 10 nm). […]
(§2) The assays were performed in duplicate or more replicates of independent single experiments each containing a six-fold replicate for every condition. For every individual plate, the measured fluorescence intensity values of the conditions with compound treatment were normalized • against the corresponding equally weighted arithmetic mean of the fluorescence intensity values of the six DMSO treated control wells in order to obtain the relative values to a baseline level of 1.0. […]

NB-4 cells = test: alamarBlue proliferation assay with NB-4 cells; format: cell-based, human; settings: relative to DMSO basis level 1.0
Description: as §1, §2

HH cells = test: alamarBlue proliferation assay with HH cells; format: cell-based, human; settings: relative to DMSO basis level 1.0
Description: as §1, §2

RPMI-8402 cells = test: alamarBlue proliferation assay with RPMI-8402 cells; format: cell-based, human; settings: relative to DMSO basis level 1.0
Description: as §1, §2

TANOUE cells = test: alamarBlue proliferation assay with TANOUE cells; format: cell-based, human; settings: relative to DMSO basis level 1.0
Description: as §1, §2

TT cells = test: alamarBlue proliferation assay with TT cells; format: cell-based, human; settings: relative to DMSO basis level 1.0
Description: as §1, §2

HeLa cells = test: alamarBlue proliferation assay with HeLa cells; format: cell-based, human; settings: relative to DMSO basis level 1.0
Description: as §1, §2

MDA-MB-231 cells = test: alamarBlue proliferation assay with MDA-MB-231 cells; format: cell-based, human; settings: 20 μM, relative to DMSO basis level 1.0
Description: The antiproliferative activities of compounds falling under formula (Ia), (Ib) and (Ic), respectively, were investigated on cells or cell lines originating from a disorder of the haematopoietic system, including the myeloid cell compartment and the lymphoid cell compartment (T-cells and B-cells), the neuroendocrine system, the cervix, the breast, the ovaries, the lung, the gastrointestinal tract, and the mucosal epithelium, as well as from the skin epithelium and from the muscle. […] The readout was taken with a multi-well plate-reader in the fluorescence mode with applying a filter for excitation at 560 nm (band width 10 nm) and for emission at 590 nm (band width 10 nm). […]
as §2

FU-OV-1 cells = test: alamarBlue proliferation assay with FU-OV-1 cells; format: cell-based, human; settings: relative to DMSO basis level 1.0
Description: as §1, §2

LOU-NH91 cells = test: alamarBlue proliferation assay with LOU-NH91 cells; format: cell-based, human; settings: relative to DMSO basis level 1.0
Description: as §1, §2

23132/87 cells = test: alamarBlue proliferation assay with 23132/87 cells; format: cell-based, human; settings: relative to DMSO basis level 1.0
Description: as §1, §2

CAL-27 cells = test: alamarBlue proliferation assay with CAL-27 cells; format: cell-based, human; settings: relative to DMSO basis level 1.0
Description: as §1, §2

BHY cells = test: alamarBlue proliferation assay with BHY cells; format: cell-based, human; settings: relative to DMSO basis level 1.0
Description: as §1, §2

SCC-25 cells = test: alamarBlue proliferation assay with SCC-25 cells; format: cell-based, human
Description: as §1, §2

A-431 cells = test: alamarBlue proliferation assay with A-431 cells; format: cell-based, human
Description: as §1, §2

HPEKp cells = test: alamarBlue proliferation assay with HPEKp cells; format: cell-based, human
Description: as §1, §2

C2C12 cells = test: alamarBlue proliferation assay with C2C12 cells; format: cell-based, murine
Description: as §1, §2

In the case of CN(Cc1cnc2nc(N)nc(N)c2n1)c1ccc(C(=O)N[C@@H](CCC(=O)O)C(=O)O)cc1 [MTREX, Methotrexate], the “Activity Range: weighted arithmetic mean (AVEw) of normalized fluorescence intensity” value (HL-60 cells; 20 μM) is reported as 0.1 ± 0.1, the “Activity Range: weighted arithmetic mean (AVEw) of normalized fluorescence intensity” value (NB-4 cells; 20 μM) is reported as 0.1 ± 0.0 and the “Activity Range: weighted arithmetic mean (AVEw) of normalized fluorescence intensity” value (HH cells; 20 μM) is reported as 0.4 ± 0.1. For the same compound, the “Activity Range: weighted arithmetic mean (AVEw) of normalized fluorescence intensity” value (RPMI-8402 cells; 20 μM) was 0.1 ± 0.0, the “Activity Range: weighted arithmetic mean (AVEw) of normalized fluorescence intensity” value (TANOUE cells; 20 μM) was 0.1 ± 0.0 and the “Activity Range: weighted arithmetic mean (AVEw) of normalized fluorescence intensity” value (TT cells; 20 μM) was 1.0 ± 0.0. The “Activity Range: weighted arithmetic mean (AVEw) of normalized fluorescence intensity” value (HeLa cells; 20 μM) was 0.4 ± 0.0, the “Activity Range: weighted arithmetic mean (AVEw) of normalized fluorescence intensity” value (MDA-MB-231 cells) was 0.6 ± 0.0 and the “Activity Range: weighted arithmetic mean (AVEw) of normalized fluorescence intensity” value (FU-OV-1 cells; 20 μM) was 1.0 ± 0.0. For the same compound, the “Activity Range: weighted arithmetic mean (AVEw) of normalized fluorescence intensity” value (LOU-NH91 cells; 20 μM) was 0.5 ± 0.1, the “Activity Range: weighted arithmetic mean (AVEw) of normalized fluorescence intensity” value (23132/87 cells; 20 μM) was 0.3 ± 0.0 and the “Activity Range: weighted arithmetic mean (AVEw) of normalized fluorescence intensity” value (CAL-27 cells; 20 μM) was 0.1 ± 0.0. For the same compound, the “Activity Range: weighted arithmetic mean (AVEw) of normalized fluorescence intensity” value (BHY cells; 20 μM) was 0.3 ± 0.0, the “Activity Range: weighted arithmetic mean (AVEw) of normalized fluorescence intensity, relative to DMSO basis level of 1.0” value (SCC-25 cells; 20 μM) was 0.5 ± 0.1 and the “Activity Range: weighted arithmetic mean (AVEw) of normalized fluorescence intensity, relative to DMSO basis level of 1.0” value (A-431 cells; 20 μM) was 0.2 ± 0.1. The “Activity Range: weighted arithmetic mean (AVEw) of normalized fluorescence intensity, relative to DMSO basis level of 1.0” value (HPEKp cells; control at 20 μM) was 0.9 ± 0.0 and the “Activity Range: weighted arithmetic mean (AVEw) of normalized fluorescence intensity, relative to DMSO basis level of 1.0” value (C2C12 cells; 20 μM) was 0.1 ± 0.0.
For Oc1ccc(C=Cc2cc(O)cc(O)c2)cc1 [RES, Resveratrol], the “Activity Range: weighted arithmetic mean (AVEw) of normalized fluorescence intensity” value (HL-60 cells; 20 μM) was 0.4 ± 0.1, the “Activity Range: weighted arithmetic mean (AVEw) of normalized fluorescence intensity” value (HL-60 cells; control at 40 μM) was 0.2 ± 0.1 and the “Activity Range: weighted arithmetic mean (AVEw) of normalized fluorescence intensity” value (NB-4 cells; 20 μM) was 0.1 ± 0.0. For the same compound, the “Activity Range: weighted arithmetic mean (AVEw) of normalized fluorescence intensity” value (NB-4 cells; control at 40 μM) was 0.0 ± 0.0, the “Activity Range: weighted arithmetic mean (AVEw) of normalized fluorescence intensity” value (HH cells; 20 μM) was 0.6 ± 0.1 and the “Activity Range: weighted arithmetic mean (AVEw) of normalized fluorescence intensity” value (HH cells; control at 40 μM) was 0.4 ± 0.1. The “Activity Range: weighted arithmetic mean (AVEw) of normalized fluorescence intensity” value (RPMI-8402 cells; 20 μM) was 0.6 ± 0.0, the “Activity Range: weighted arithmetic mean (AVEw) of normalized fluorescence intensity” value (RPMI-8402 cells; control at 40 μM) was 0.1 ± 0.0 and the “Activity Range: weighted arithmetic mean (AVEw) of normalized fluorescence intensity” value (TANOUE cells; 20 μM) was 0.1 ± 0.0. The “Activity Range: weighted arithmetic mean (AVEw) of normalized fluorescence intensity” value (TANOUE cells; control at 40 μM) was 0.0 ± 0.0, the “Activity Range: weighted arithmetic mean (AVEw) of normalized fluorescence intensity” value (TT cells; 20 μM) was 0.9 ± 0.0 and the “Activity Range: weighted arithmetic mean (AVEw) of normalized fluorescence intensity” value (TT cells; control at 40 μM) was 0.7 ± 0.0. The “Activity Range: weighted arithmetic mean (AVEw) of normalized fluorescence intensity” value (HeLa cells; 20 μM) was 0.9 ± 0.0, the “Activity Range: weighted arithmetic mean (AVEw) of normalized fluorescence intensity” value (HeLa cells; control at 40 μM) was 0.4 ± 0.1 and the “Activity Range: weighted arithmetic mean (AVEw) of normalized fluorescence intensity” value (MDA-MB-231 cells) was 0.6 ± 0.0. The “Activity Range: weighted arithmetic mean (AVEw) of normalized fluorescence intensity” value (FU-OV-1 cells; 20 μM) was 0.7 ± 0.0, the “Activity Range: weighted arithmetic mean (AVEw) of normalized fluorescence intensity” value (FU-OV-1 cells; control at 40 μM) was 0.4 ± 0.0 and the “Activity Range: weighted arithmetic mean (AVEw) of normalized fluorescence intensity” value (LOU-NH91 cells; 20 μM) was 0.9 ± 0.1. For the same compound, the “Activity Range: weighted arithmetic mean (AVEw) of normalized fluorescence intensity” value (LOU-NH91 cells; control at 40 μM) was 0.7 ± 0.0, the “Activity Range: weighted arithmetic mean (AVEw) of normalized fluorescence intensity” value (23132/87 cells; 20 μM) was 0.5 ± 0.1 and the “Activity Range: weighted arithmetic mean (AVEw) of normalized fluorescence intensity” value (23132/87 cells; control at 40 μM) was 0.2 ± 0.0. For the same compound, the “Activity Range: weighted arithmetic mean (AVEw) of normalized fluorescence intensity” value (CAL-27 cells; 20 μM) was 0.8 ± 0.1, the “Activity Range: weighted arithmetic mean (AVEw) of normalized fluorescence intensity” value (CAL-27 cells; control at 40 μM) was 0.4 ± 0.3 and the “Activity Range: weighted arithmetic mean (AVEw) of normalized fluorescence intensity” value (BHY cells; 20 μM) was 0.5 ± 0.1. The “Activity Range: weighted arithmetic mean (AVEw) of normalized fluorescence intensity” value (BHY cells; control at 40 μM) was 0.3 ± 0.0, the “Activity Range: weighted arithmetic mean (AVEw) of normalized fluorescence intensity, relative to DMSO basis level of 1.0” value (SCC-25 cells; 20 μM) was 0.4 ± 0.1 and the “Activity Range: weighted arithmetic mean (AVEw) of normalized fluorescence intensity, relative to DMSO basis level of 1.0” value (SCC-25 cells; control at 40 μM) was 0.1 ± 0.0. For the same compound, the “Activity Range: weighted arithmetic mean (AVEw) of normalized fluorescence intensity, relative to DMSO basis level of 1.0” value (A-431 cells; 20 μM) was 0.6 ± 0.1, the “Activity Range: weighted arithmetic mean (AVEw) of normalized fluorescence intensity, relative to DMSO basis level of 1.0” value (A-431 cells; control at 40 μM) was 0.2 ± 0.0 and the “Activity Range: weighted arithmetic mean (AVEw) of normalized fluorescence intensity, relative to DMSO basis level of 1.0” value (HPEKp cells; control at 20 μM) was 0.2 ± 0.0. The “Activity Range: weighted arithmetic mean (AVEw) of normalized fluorescence intensity, relative to DMSO basis level of 1.0” value (HPEKp cells; control at 40 μM) was 0.2 ± 0.0, the “Activity Range: weighted arithmetic mean (AVEw) of normalized fluorescence intensity, relative to DMSO basis level of 1.0” value (C2C12 cells; 20 μM) was 0.8 ± 0.0 and the “Activity Range: weighted arithmetic mean (AVEw) of normalized fluorescence intensity, relative to DMSO basis level of 1.0” value (C2C12 cells; control at 40 μM) was 0.2 ± 0.1.
